The numbers were not newly measured in patent US12569481B2, “Methods of treatment for gastrointestinal motility disorders” (Vanderbilt University, priority 2020, dated 2026), which cites them from elsewhere.

Data set [1] addresses cardiac late sodium current (late INa) (Homo sapiens, UniProt Q14524).
For data set [2] the following is noted: room temperature; over-encapsulated 500 mg extended release tablets.
Data set [3] relates to human colon muscle strips.
Assay in data set [4]: not given
This is another data set of the same source.

Data set [5] addresses T1, sodium current in human colon SMCs (Homo sapiens, UniProt Q14524).
T1 construct: sodium current in human colon SMCs; endogenous in cells; host or cells: human colon smooth muscle cells (SMCs)

The target of data set [6] is KCNH2-encoded hERG K+ channels (Homo sapiens, UniProt Q12809). The settings on record: channels found in cardiac muscle and intestinal smooth muscle.

Each structure is given as a SMILES string.

Chain of cardiac late sodium current (late INa) (Q14524 whole entry): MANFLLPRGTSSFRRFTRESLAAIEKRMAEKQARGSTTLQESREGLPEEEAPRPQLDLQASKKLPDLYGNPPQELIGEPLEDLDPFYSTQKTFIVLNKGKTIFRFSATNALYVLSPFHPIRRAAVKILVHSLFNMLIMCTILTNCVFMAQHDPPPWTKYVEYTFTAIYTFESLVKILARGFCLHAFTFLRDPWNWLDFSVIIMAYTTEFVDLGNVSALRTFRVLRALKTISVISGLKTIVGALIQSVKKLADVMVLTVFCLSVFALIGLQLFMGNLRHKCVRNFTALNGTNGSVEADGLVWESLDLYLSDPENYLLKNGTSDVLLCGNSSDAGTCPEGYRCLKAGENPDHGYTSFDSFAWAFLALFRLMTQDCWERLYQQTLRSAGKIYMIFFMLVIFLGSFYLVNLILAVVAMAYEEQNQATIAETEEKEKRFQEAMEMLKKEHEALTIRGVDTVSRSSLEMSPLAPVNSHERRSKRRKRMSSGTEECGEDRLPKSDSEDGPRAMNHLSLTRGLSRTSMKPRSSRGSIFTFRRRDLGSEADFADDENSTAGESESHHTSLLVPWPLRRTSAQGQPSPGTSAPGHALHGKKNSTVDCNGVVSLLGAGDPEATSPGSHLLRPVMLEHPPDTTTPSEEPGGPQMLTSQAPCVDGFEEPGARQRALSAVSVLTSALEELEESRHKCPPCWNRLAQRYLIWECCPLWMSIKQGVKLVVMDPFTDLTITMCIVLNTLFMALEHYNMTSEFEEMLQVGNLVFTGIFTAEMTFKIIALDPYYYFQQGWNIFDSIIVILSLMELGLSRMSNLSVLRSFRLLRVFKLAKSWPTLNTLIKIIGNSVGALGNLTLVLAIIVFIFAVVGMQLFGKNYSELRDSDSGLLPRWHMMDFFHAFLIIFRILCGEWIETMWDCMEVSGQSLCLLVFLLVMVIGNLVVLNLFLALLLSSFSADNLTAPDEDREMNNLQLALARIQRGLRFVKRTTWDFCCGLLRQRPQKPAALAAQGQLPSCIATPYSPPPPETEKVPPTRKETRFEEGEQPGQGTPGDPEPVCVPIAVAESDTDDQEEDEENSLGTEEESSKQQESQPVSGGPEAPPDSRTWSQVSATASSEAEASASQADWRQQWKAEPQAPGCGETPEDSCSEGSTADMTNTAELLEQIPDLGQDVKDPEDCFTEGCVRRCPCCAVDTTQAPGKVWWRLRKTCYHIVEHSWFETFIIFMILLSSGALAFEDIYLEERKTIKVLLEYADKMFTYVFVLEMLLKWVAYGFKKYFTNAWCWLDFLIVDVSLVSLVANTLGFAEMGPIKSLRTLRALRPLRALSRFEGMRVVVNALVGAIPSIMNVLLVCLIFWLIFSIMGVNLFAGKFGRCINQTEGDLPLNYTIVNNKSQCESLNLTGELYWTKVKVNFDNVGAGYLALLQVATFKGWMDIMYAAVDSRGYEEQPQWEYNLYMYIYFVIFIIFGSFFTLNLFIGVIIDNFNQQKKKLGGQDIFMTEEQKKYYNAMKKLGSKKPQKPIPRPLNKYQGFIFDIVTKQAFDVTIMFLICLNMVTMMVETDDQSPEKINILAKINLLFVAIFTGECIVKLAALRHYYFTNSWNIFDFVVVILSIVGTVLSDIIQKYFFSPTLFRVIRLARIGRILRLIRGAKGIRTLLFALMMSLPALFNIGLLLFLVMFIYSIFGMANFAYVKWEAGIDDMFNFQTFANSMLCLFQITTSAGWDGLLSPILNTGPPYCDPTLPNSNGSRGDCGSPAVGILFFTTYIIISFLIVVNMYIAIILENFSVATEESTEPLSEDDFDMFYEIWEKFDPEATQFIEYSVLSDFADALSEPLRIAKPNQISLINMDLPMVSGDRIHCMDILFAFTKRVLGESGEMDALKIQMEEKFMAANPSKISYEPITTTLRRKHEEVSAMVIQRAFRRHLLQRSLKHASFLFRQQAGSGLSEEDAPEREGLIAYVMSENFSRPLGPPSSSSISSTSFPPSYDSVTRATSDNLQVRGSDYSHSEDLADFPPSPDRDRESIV
Chain of KCNH2-encoded hERG K+ channels (Q12809 whole entry): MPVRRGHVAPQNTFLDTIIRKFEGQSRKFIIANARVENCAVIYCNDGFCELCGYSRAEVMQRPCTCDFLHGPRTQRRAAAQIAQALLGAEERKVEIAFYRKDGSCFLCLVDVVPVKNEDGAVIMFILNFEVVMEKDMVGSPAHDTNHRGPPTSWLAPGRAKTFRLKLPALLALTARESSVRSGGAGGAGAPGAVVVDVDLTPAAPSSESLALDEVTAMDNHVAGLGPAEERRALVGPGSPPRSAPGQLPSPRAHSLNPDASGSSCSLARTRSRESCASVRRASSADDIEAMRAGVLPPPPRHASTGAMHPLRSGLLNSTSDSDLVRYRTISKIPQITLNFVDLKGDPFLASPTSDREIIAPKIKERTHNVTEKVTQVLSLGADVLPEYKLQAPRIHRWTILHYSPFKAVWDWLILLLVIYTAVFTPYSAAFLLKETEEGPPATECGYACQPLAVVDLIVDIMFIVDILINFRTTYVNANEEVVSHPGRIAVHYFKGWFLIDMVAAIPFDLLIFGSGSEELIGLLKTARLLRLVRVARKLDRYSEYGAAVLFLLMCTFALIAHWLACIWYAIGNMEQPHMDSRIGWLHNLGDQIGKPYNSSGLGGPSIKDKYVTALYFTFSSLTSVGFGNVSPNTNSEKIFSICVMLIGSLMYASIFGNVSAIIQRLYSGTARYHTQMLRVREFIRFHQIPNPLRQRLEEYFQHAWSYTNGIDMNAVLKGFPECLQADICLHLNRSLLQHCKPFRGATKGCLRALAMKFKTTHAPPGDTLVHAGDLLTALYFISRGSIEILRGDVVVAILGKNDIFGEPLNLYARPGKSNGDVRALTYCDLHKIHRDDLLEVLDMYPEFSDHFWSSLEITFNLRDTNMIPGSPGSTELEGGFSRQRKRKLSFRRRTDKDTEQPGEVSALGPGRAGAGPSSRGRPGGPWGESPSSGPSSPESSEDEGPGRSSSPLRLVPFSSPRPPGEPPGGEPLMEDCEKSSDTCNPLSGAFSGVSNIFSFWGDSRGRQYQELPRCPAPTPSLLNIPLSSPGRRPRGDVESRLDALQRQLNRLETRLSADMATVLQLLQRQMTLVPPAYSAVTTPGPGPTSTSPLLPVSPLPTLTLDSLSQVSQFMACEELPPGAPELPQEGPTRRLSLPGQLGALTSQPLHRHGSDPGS

For the molecule `COc1ccccc1OCC(O)CN1CCN(CC(=O)Nc2c(C)cccc2C)CC1` (centres unmarked) [Ranolazine], in data set [1] (late INa vs peak INa), the “selectivity for late INa vs peak INa” value is listed as “nine”. Moreover, the “inhibition of cardiac late sodium current (late INa)” value in data set [1] (residual Na+ flowing after peak INa during an action potential) is on record as “inhibitor”. The storage time entry in data set [2] is “up to 12 months”. Further, the effect on contractility entry in data set [3] was “decreases contractility”. Besides, for the setting “dizziness, nausea, constipation, and headache”, the “patients experiencing the most common side effects” value was “less than 2%”. The safety and tolerability entry (used properly and not concurrently with contraindicated drugs) was “safe and well-tolerated”. The metabolism entry in data set [4] (cytochrome P-450 3A enzyme (CYP3A) pathway in the liver) is “rapidly metabolized”. Besides, in data set [4] (in vivo), the half-life entry is given as “seven”. Besides, in data set [4] (ingested, urine), the “ingested ranolazine excreted in the urine” value was “At least 70%”. Moreover, the “effect on peak amplitude and mechanosensitivity of sodium current” value in data set [5] is “blocks both peak amplitude and mechanosensitivity”. In addition, the “block of KCNH2-encoded hERG K+ channels” value in data set [6] is recorded as “block”.
